In patent publication US20260365670A1, “EGFR INHIBITORS AND USES THEREOF” (DIZAL (JIANGSU) PHARMACEUTICAL CO., LTD., priority 2022, published 2026):
Where two headings read alike, the source gives them in different places.

What was measured:
EGFR (C797S L858R) = biological target: T1, EGFR (C797S L858R) (Homo sapiens, UniProt P00533, C797S/L858R); assay: Inhibition of EGFR (C797S L858R) biochemical enzymatic activity (HTRF); details: 1 mM ATP
T1 construct: purchased signalchem
Summary of the method: (§1)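 1 mM ATP, 1 μM biotin-TK peptide, 5 mM MgCl2, 1 mM MnCl2, 0.01% CHAPS, 1 mM DTT, 0.5% DMSO; 1 h RT; EDTA stop; HTRF 665/615 nm; IC50 via 4PL.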

EGFR (d746-750 C797S) = biological target: T2, EGFR (d746-750 C797S) (Homo sapiens, UniProt P00533, C797S/DEL746-750); assay: Inhibition of EGFR (d746-750 C797S) biochemical enzymatic activity (HTRF); details: 1 mM ATP
T2 construct: purchased signalchem
Summary of the method: as §1

EGFR Exon19Del/T790M = biological target: T3, EGFR Exon19Del/T790M (Homo sapiens, UniProt P00533, DEL746-750/T790M); assay: Inhibition of EGFR Exon19Del/T790M biochemical enzymatic activity (HTRF); details: 1 mM ATP
T3 construct: purchased Carna Bio
Summary of the method: as §1

PC-9 = assay: Cell proliferation assay, PC-9 cells (CellTiter-Glo, 72 hours); type: cell-based; details: PC9 cells
Summary of the method: (§2)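 Ba/F3 cells (5000/well) and PC-9 cells (500/well, RPMI1640 with 10% FBS) were plated overnight and then dosed with a compound concentration series. Viable cells were read at day 0 (G0) and after treatment (G3). GI50 came from curve fits of G0-corrected proliferation relative to DMSO.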

EGFR L858R/T790M = biological target: T4, EGFR L858R/T790M (Homo sapiens, UniProt P00533, L858R/T790M); assay: Inhibition of EGFR L858R/T790M biochemical enzymatic activity (HTRF); details: 1 mM ATP
T4 construct: purchased Carna Bio
Summary of the method: as §1

[1] = biological target: T5, EGFR[T790M/C797S/d746-750] (Homo sapiens, UniProt P00533, C797S/DEL746-750/T790M); assay: Inhibition of EGFR[T790M/C797S/d746-750] biochemical enzymatic activity (HTRF)
T5 construct: purchased Carna Bio
Summary of the method: as §1

EGFR wild type = biological target: T6, EGFR wild type (Homo sapiens, UniProt P00533); assay: Inhibition of EGFR wild type biochemical enzymatic activity (HTRF); details: 1 mM ATP
T6 construct: purchased Carna Bio
Summary of the method: as §1

[2] = test system: Ba/F3 cells expressing EGFR mutations; assay: Cell proliferation assay, Ba/F3 cells expressing EGFR mutations (CellTiter-Glo, 72 hours); type: cell-based
Summary of the method: as §2

EGFR L858R = biological target: T7, EGFR L858R (Homo sapiens, UniProt P00533, L858R); assay: Inhibition of EGFR L858R biochemical enzymatic activity (HTRF); details: 1 mM ATP
T7 construct: purchased Carna Bio
Summary of the method: as §1

EGFR Exon19Del = biological target: T8, EGFR Exon19Del (Homo sapiens, UniProt P00533, DEL746-750); assay: Inhibition of EGFR Exon19Del biochemical enzymatic activity (HTRF); details: read-out: IC50 @Del19
T8 construct: purchased Carna Bio
Summary of the method: as §1

EGFR[T790M/C797S/L858R] = biological target: T9, EGFR[T790M/C797S/L858R] (Homo sapiens, UniProt P00533, C797S/L858R/T790M); assay: Inhibition of EGFR[T790M/C797S/L858R] biochemical enzymatic activity (HTRF); details: 1 mM ATP
T9 construct: purchased Carna Bio
Summary of the method: as §1

[3] = EGFR L858-C797S, 1 h, room temperature, read-out: IC50 (nM) @L858-C797S
[4] = EGFR Del19-C797S, 1 h, room temperature, read-out: IC50 (nM) @Del19-C797S
[5] = EGFR Del19-T790M, 1 h, room temperature, read-out: IC50 (nM) @Del19-T790M
[6] = CellTiter-Glo, read-out: PC9 GI50
[7] = EGFR L858R-T790M, 1 h, room temperature, read-out: IC50 (nM) @L858R-T790M
[8] = EGFR T790M-C797S-Del19, 1 mM ATP, 1 h, room temperature, read-out: IC50 (nM) @T790M - C797S - Del19
[9] = EGFR WT, 1 h, room temperature, read-out: IC50 (nM) @WT
[10] = BaF3 cells, EGFR DEL19-C797S, CellTiter-Glo, read-out: DEL19-C797S/BaF3 GI50
[11] = BaF3 cells, EGFR DEL19-T790-C797S, CellTiter-Glo, read-out: DEL19-T790-C797S/BaF3 GI50
[12] = BaF3 cells, EGFR L858R, CellTiter-Glo, read-out: L858R/BaF3 GI50
[13] = BaF3 cells, EGFR L858R-C797S, CellTiter-Glo, read-out: L858R-C797S/BaF3 GI50
[14] = BaF3 cells, EGFR L858R-T790-C797S, CellTiter-Glo, read-out: L858R-T790-C797S/BaF3 GI50
[15] = BaF3 cells, EGFR L858R-T790M, CellTiter-Glo, read-out: L858R-T790M/BaF3 GI50
[16] = EGFR DEL19-T790M, CellTiter-Glo, read-out: DEL19-T790M GI50
[17] = 1 h, room temperature, read-out: IC50 (nM) @L858R
[18] = EGFR Del19, 1 mM ATP, 1 h, room temperature
[19] = EGFR T790M-C797S-L858R, 1 h, room temperature, read-out: IC50 (nM) @T790M- C797S - L858R
[20] = EGFR (C797S L858R), 1 h at room temperature, read-out: IC50 @L858-C797S
[21] = EGFR (d746-750 C797S), 1 h at room temperature, read-out: IC50 @Del19-C797S
[22] = EGFR Exon19Del/T790M, 1 h at room temperature, read-out: IC50 @Del19-T790M
[23] = EGFR L858R/T790M, 1 h at room temperature, read-out: IC50 @L858R-T790M
[24] = EGFR[T790M/C797S/d746-750], 1 mM ATP, 1 h at room temperature, read-out: IC50 @T790M - C797S - Del19
[25] = EGFR wild type, 1 h at room temperature, read-out: IC50 @WT
[26] = BaF3 cells, EGFR DEL19 - C797S, read-out: GI50 DEL19 - C797S/BaF3
[27] = BaF3 cells, EGFR DEL19 - T790-C797S, read-out: GI50 DEL19 - T790-C797S/BaF3
[28] = BaF3 cells, EGFR L858R - C797S, read-out: GI50 L858R - C797S/BaF3
[29] = BaF3 cells, EGFR L858R - T790-C797S, read-out: GI50 L858R - T790-C797S/BaF3
[30] = BaF3 cells, EGFR L858R - T790M, read-out: GI50 L858R - T790M/BaF3
[31] = BaF3 cells, EGFR L858R, read-out: GI50 L858R/BaF3
[32] = EGFR DEL19 - T790M, read-out: GI50 DEL19 - T790M
[33] = 1 h at room temperature, read-out: IC50 @L858R
[34] = EGFR Exon19Del, 1 mM ATP, 1 h at room temperature
[35] = EGFR[T790M/C797S/L858R], 1 h at room temperature, read-out: IC50 @T790M- C797S - L858R

T2 sequence (P00533 with tags, fused parts or gaps DEL746-750/C797S limits assumed): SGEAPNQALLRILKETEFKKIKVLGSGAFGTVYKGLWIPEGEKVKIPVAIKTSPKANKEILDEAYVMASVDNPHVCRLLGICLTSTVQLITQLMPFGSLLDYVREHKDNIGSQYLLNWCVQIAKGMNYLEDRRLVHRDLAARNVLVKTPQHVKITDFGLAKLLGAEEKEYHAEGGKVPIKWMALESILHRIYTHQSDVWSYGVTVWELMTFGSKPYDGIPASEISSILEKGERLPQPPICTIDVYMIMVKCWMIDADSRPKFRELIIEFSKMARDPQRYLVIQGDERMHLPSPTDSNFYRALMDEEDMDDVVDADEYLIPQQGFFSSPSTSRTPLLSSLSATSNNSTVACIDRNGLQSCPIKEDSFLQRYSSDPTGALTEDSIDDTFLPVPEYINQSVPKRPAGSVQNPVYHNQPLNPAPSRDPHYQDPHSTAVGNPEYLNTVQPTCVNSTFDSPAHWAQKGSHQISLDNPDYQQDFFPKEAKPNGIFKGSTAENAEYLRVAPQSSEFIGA
T8 sequence (P00533 with tags, fused parts or gaps DEL746-750 limits assumed): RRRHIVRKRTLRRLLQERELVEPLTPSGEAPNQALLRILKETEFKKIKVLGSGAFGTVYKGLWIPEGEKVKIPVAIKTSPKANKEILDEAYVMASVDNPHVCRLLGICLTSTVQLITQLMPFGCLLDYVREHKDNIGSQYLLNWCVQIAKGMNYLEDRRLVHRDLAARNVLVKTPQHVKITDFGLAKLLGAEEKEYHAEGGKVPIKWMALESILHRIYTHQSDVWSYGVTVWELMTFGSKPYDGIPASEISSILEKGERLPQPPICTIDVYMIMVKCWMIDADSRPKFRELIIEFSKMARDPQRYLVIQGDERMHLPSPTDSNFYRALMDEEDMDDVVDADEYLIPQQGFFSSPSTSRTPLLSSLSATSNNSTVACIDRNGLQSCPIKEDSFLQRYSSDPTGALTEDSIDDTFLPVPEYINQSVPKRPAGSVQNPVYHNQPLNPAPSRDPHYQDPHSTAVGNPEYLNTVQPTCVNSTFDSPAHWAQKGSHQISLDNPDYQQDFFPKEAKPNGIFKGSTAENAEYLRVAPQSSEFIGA
T3 sequence (P00533 with tags, fused parts or gaps DEL746-750/T790M limits assumed): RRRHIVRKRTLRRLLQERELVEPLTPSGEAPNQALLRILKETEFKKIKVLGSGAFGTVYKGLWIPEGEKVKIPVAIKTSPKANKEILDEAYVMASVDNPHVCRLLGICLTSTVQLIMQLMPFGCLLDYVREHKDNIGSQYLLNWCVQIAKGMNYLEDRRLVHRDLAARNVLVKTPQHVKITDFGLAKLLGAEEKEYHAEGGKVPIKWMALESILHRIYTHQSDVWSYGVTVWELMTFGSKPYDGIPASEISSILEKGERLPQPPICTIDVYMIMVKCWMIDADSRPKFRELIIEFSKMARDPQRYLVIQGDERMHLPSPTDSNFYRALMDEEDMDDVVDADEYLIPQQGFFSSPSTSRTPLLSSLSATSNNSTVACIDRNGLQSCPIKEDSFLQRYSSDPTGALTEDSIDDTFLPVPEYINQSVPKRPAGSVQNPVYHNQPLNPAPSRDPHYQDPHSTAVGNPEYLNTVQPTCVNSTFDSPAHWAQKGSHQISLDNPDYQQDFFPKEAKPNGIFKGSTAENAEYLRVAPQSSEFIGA
T1 sequence (P00533 25-1210 C797S/L858R): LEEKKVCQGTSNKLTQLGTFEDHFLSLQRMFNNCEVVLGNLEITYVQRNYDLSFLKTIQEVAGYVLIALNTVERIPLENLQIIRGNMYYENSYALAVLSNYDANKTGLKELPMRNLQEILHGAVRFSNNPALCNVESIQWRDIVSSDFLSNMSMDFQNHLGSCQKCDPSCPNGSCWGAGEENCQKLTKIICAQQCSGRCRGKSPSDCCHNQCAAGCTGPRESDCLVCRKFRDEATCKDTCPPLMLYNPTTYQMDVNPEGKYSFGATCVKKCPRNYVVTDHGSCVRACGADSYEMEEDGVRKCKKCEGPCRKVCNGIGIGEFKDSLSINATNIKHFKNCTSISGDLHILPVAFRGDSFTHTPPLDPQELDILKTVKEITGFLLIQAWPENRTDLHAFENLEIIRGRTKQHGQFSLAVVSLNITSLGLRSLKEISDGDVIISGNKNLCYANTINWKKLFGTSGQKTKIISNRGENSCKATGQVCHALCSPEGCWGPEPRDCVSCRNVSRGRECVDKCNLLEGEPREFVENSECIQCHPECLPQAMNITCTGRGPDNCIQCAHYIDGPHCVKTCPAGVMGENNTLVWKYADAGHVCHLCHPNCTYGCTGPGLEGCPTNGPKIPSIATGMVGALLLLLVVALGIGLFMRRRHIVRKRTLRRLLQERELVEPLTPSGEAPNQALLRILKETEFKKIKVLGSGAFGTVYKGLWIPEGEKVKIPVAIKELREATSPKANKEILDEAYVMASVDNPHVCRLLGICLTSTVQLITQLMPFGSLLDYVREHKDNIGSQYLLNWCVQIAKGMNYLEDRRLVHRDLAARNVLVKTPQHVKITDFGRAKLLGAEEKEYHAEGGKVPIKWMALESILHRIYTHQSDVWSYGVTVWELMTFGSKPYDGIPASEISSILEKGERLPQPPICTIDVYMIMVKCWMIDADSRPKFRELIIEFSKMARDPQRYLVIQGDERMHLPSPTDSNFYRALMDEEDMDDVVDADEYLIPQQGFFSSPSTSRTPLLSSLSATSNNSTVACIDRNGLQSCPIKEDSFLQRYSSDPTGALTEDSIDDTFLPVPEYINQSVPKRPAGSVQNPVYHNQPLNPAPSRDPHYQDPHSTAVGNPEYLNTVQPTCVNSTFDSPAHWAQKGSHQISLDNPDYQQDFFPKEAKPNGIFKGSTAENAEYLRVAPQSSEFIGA
T7 sequence (P00533 25-1210 L858R): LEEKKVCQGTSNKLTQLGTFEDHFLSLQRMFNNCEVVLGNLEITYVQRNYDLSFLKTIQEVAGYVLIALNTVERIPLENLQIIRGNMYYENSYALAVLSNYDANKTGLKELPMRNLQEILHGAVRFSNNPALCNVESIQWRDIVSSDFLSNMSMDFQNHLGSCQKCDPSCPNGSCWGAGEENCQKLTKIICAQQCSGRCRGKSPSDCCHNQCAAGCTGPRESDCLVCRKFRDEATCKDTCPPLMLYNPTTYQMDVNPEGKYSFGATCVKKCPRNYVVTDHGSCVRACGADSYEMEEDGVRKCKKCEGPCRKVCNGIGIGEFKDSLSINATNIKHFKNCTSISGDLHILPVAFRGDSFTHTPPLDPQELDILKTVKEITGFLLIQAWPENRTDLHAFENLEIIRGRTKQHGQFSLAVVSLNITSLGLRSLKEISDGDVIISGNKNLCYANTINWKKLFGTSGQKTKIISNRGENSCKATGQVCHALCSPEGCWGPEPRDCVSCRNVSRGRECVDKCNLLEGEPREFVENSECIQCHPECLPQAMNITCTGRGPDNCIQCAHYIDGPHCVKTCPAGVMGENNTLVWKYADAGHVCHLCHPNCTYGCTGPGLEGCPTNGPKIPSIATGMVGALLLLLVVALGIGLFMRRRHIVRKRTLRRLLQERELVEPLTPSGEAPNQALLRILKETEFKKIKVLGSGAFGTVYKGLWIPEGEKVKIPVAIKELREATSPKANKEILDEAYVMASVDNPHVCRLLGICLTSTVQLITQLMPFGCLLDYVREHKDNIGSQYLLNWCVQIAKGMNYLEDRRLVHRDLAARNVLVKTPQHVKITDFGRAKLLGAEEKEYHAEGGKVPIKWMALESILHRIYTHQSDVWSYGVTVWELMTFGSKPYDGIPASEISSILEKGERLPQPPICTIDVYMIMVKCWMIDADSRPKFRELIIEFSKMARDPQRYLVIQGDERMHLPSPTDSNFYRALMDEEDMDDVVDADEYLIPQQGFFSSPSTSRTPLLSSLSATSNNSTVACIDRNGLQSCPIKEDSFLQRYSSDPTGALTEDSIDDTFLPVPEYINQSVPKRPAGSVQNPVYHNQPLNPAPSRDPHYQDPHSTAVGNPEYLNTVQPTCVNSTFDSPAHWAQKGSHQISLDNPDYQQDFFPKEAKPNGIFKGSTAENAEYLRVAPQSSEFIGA
T5 sequence (P00533 with tags, fused parts or gaps DEL746-750/T790M/C797S limits assumed): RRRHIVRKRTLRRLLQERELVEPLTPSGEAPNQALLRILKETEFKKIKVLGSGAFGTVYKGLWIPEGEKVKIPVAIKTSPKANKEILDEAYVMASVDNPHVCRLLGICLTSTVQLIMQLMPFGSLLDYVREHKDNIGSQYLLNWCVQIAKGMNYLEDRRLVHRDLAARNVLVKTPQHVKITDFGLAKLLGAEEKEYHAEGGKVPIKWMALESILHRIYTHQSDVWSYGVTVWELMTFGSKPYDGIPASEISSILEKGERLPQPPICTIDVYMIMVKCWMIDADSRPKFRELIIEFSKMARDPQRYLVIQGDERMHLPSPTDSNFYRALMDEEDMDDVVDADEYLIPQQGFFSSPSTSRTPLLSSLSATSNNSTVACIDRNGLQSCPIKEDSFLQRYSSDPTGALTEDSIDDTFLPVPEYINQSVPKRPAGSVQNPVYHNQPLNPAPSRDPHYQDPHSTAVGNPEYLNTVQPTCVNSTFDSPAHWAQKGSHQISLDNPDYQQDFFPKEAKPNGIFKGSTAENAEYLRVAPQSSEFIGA

| Structure (SMILES) | IC50 (EGFR (C797S L858R); [3]) | IC50 (EGFR (d746-750 C797S); [4]) | IC50 (EGFR Exon19Del/T790M; [5]) | IC50 (EGFR (C797S L858R); [20]) | IC50 (EGFR (d746-750 C797S); [21]) | IC50 (EGFR Exon19Del/T790M; [22]) | GI50 (PC-9; read-out: GI50 PC9) | IC50 (EGFR L858R/T790M; [23]) | IC50 [1, 24] | IC50 (EGFR wild type; [25]) | GI50 [2, 26] | GI50 [2, 27] | GI50 [2, 28] | GI50 [2, 29] | GI50 [2, 30] | GI50 [2, 31] | GI50 [2, 32] | IC50 (EGFR L858R; [33]) | IC50 (EGFR Exon19Del; [34]) | IC50 (EGFR[T790M/C797S/L858R]; [35]) | other results |
| --- | --- | --- | --- | --- | --- | --- | --- | --- | --- | --- | --- | --- | --- | --- | --- | --- | --- | --- | --- | --- | --- |
| CN1CCC2(CC1)CN(c1ccc3nc4n(c3c1)C13CCC(CN(CCOc5c(cnn5C)-c5cc(cn(C)c5=O)C(=O)N4)C1)C3)C2 (single isomer, unassigned) [Example A77A] | > 5000 nM | 464 nM | > 5000 nM | – | – | – | – | – | – | – | – | – | – | – | – | – | – | – | – | – | GI50 (PC-9; [6]): 341 nM; IC50 (EGFR L858R/T790M; [7]): > 5000 nM; IC50 [1, 8]: > 5000 nM; IC50 (EGFR wild type; [9]): > 5000 nM; GI50 [2, 10]: 102 nM; GI50 [2, 11]: 326 nM; GI50 [2, 12]: 320 nM; GI50 [2, 13]: 125 nM; GI50 [2, 14]: 368 nM; GI50 [2, 15]: 375 nM; GI50 [2, 16]: 212 nM; IC50 (EGFR L858R; [17]): 1110 nM; IC50 (EGFR Exon19Del; [18]): 456 nM; IC50 (EGFR[T790M/C797S/L858R]; [19]): > 5000 nM |
| Cc1cc2cc(n1)-c1cnn(C)c1OCCN1CC3CCC(C3)(C1)n1c(nc3ccc(N4CCC(N5CCN(C)CC5)C4)cc31)NC2=O (single isomer, unassigned) [Example B49A] | – | – | – | > 5000 nM | > 5000 nM | 481 nM | 1480 nM | > 5000 nM | 289 nM | > 5000 nM | 325 nM | 606 nM | 750 nM | 57 nM | 353 nM | 931 nM | 550 nM | > 5000 nM | > 5000 nM | > 5000 nM | – |
| Cc1cc2cc(n1)-c1cnn(C)c1OCCN1CC3CCC(C3)(C1)n1c(nc3ccc(N4CCC(N5CCOCC5)C4)cc31)NC2=O (single isomer, unassigned) [Example B44A1] | – | – | – | > 5000 nM | > 5000 nM | > 5000 nM | 2300 nM | > 5000 nM | 4530 nM | > 5000 nM | 470 nM | 454 nM | 850 nM | 114 nM | 392 nM | 3200 nM | 1210 nM | > 5000 nM | > 5000 nM | > 5000 nM | – |
| Cc1cc2cc(n1)-c1cnn(C)c1OCCN1CC3CCC(C3)(C1)n1c(nc3ccc(N4CC5CC4CN5C)cc31)NC2=O (single isomer, unassigned) [Example B53A] | – | – | – | > 5000 nM | 4350 nM | 3320 nM | 3040 nM | > 5000 nM | 1080 nM | > 5000 nM | 348 nM | 419 nM | 1070 nM | 91 nM | 383 nM | 2570 nM | 388 nM | > 5000 nM | > 5000 nM | > 5000 nM | – |
| Cc1cc2cc(n1)-c1cnn(C)c1OCCN1CC3CCC(C3)(C1)n1c(nc3ccc(N(C)CCCN(C)C)cc31)NC2=O (single isomer, unassigned) [Example B45A] | – | – | – | > 5000 nM | > 5000 nM | 3620 nM | 2800 nM | > 5000 nM | 1290 nM | > 5000 nM | 239 nM | 363 nM | 10000 nM | 48 nM | 10000 nM | 2850 nM | 10000 nM | > 5000 nM | > 5000 nM | > 5000 nM | – |
| CN1CCC2CN(c3ccc4nc5n(c4c3)C34CCC(CN(CCOc6c(cnn6C)-c6cc(cn(C)c6=O)C(=O)N5)C3)C4)CC21 (single isomer, unassigned) [Example A79A] | > 5000 nM | 1580 nM | > 5000 nM | – | – | – | – | – | – | – | – | – | – | – | – | – | – | – | – | – | GI50 (PC-9; [6]): 993 nM; IC50 (EGFR L858R/T790M; [7]): > 5000 nM; IC50 [1, 8]: > 5000 nM; IC50 (EGFR wild type; [9]): > 5000 nM; GI50 [2, 10]: 251 nM; GI50 [2, 11]: 999 nM; GI50 [2, 12]: 990 nM; GI50 [2, 13]: 360 nM; GI50 [2, 14]: 1910 nM; GI50 [2, 15]: 1120 nM; GI50 [2, 16]: 882 nM; IC50 (EGFR L858R; [17]): > 5000 nM; IC50 (EGFR Exon19Del; [18]): 1430 nM; IC50 (EGFR[T790M/C797S/L858R]; [19]): > 5000 nM |
